Data: publication PMC6211316, “Synthesis and biological evaluation of 3-arylcoumarin derivatives as potential anti-diabetic agents” (Journal of Enzyme Inhibition and Medicinal Chemistry, 2018)

Experiments:
[1] = DPPH free radical scavenging; details: mean ± SD (n = 3)
Summary of the method: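 Sample solutions at various concentrations mixed 1:1 with DPPH (0.04 mg/mL) and reacted 30 min at room temperature; absorbance read at 517 nm against ethanol blank, corrected for sample absorbance. Scavenging % calculated versus DPPH alone, triplicate measurements, IC50 derived.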

[2] = target: T1, α-Glucosidase (Saccharomyces cerevisiae, UniProt P53341); assay: biochemical; format: biochemical; details: for α-glucosidase inhibitory activity (in words): in vitro; for IC50: mean ± SD (n = 3), read-out: α-Glucosidase inhibitory activity IC50 Value
T1 construct: purchased Sigma Aldrich G0660-750UN
Summary of the method: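 Absorbance at 405 nm of released p-nitrophenol gave % inhibition, corrected for blank and sample-blank wells, and IC50 values, all in triplicate. Reactions combined yeast enzyme, PNPG and test compound in pH 6.8 phosphate buffer (100 mM) at 37 °C for 20 min following a 10-min preincubation, ended with Na2CO3.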

[3] = system: AGEs formation; assay: In vitro inhibitory activity of AGEs formation (bovine serum albumin/glucose); format: biochemical; details: mean ± SD (n = 3)
Summary of the method: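 Bovine serum albumin (10 mg/mL) with 0.2 M glucose in 50 mM PBS, pH 7.4, plus 0.02% sodium azide, was mixed with compound solutions (0.5–1000 μg/mL in DMSO) and held 14 d at 37 °C. AGE fluorescence was read at ex 350/em 420 nm in triplicate. Inhibition was corrected with glucose-free blanks, and IC50 calculated.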

[4] = system: STZ-diabetic mice; assay: Acute hypoglycemic assay in STZ-diabetic mice; format: in vivo; details: for hypoglycemic effect: STZ-diabetic animals, 30 mg/kg of bw, started from 3 h and persisted throughout the experiment; for highest anti-hyperglycemic effect: STZ-diabetic mice; for Blood glucose concentration / % Variation of glycemia: STZ-diabetics mice
Description: Type II diabetes mellitus was induced in mice by a single intraperitoneal injection of freshly prepared STZ (Sigma Aldrich) dissolved in 0.1M citrate buffer, pH 4.5, in a volume of 110 mg/kg of bw. After 7 days of STZ administration, blood glucose levels of each mouse were determined. Mice with blood glucose levels higher than 11 mM were considered diabetic and were included in the study.
STZ-induced diabetic mice and normal mice were placed in single cages with wire-net floors and deprived of food for 12 h before experimentation but allowed free access to tap water throughout. The compounds (at the doses of 10, 30, and 100 mg/kg of bw) were suspended in 0.05% Tween-80 in saline solution. Glibenclamide (10 mg/kg of bw) was suspended in the same vehicle. The target compounds were freshly prepared immediately before experimentation and administered by the intragastrical route at the doses of 10 ml/kg of bw. Control mice received only the vehicle (0.05% Tween-80 in saline solution) by the same route. Blood glucose levels were measured at 0, 1.5, 3, 5, 7, and 9 h after drugs administration.

T1 sequence (P53341 whole entry): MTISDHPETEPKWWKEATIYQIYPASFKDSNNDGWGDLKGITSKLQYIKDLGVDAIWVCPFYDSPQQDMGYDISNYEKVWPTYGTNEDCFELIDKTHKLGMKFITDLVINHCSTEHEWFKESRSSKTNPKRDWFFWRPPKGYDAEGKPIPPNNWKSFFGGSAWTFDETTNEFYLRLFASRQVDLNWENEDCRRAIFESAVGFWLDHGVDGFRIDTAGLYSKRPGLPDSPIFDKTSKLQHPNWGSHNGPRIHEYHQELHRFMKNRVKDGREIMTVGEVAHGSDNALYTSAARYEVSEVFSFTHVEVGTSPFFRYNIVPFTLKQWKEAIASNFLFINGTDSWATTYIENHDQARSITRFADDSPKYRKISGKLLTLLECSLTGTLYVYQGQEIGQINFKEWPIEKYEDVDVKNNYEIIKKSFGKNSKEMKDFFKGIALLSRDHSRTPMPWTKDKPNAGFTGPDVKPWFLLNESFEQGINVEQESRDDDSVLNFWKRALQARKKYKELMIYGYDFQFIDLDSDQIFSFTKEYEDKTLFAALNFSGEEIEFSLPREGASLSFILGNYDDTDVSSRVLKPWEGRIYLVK

| Compound | IC50 [1] | α-glucosidase inhibitory activity (in words) [2] | IC50 [2] | IC50 [3] | hypoglycemic effect [4] | highest anti-hyperglycemic effect ([4]; 30 mg/kg, at 9 h) | Blood glucose concentration ([4]; 10 mg/kg of bw per os, 0h) | % Variation of glycemia ([4]; 10 mg/kg of bw per os, 1.5h) | Blood glucose concentration ([4]; 10 mg/kg of bw per os, 1.5h) | % Variation of glycemia ([4]; 10 mg/kg of bw per os, 3h) | Blood glucose concentration ([4]; 10 mg/kg of bw per os, 3h) | % Variation of glycemia ([4]; 10 mg/kg of bw per os, 5h) | Blood glucose concentration ([4]; 10 mg/kg of bw per os, 5h) | % Variation of glycemia ([4]; 10 mg/kg of bw per os, 7h) | Blood glucose concentration ([4]; 10 mg/kg of bw per os, 7h) | % Variation of glycemia ([4]; 10 mg/kg of bw per os, 9h) | Blood glucose concentration ([4]; 10 mg/kg of bw per os, 9h) | Blood glucose concentration ([4]; 30 mg/kg of bw per os, 0h) | % Variation of glycemia ([4]; 30 mg/kg of bw per os, 1.5h) | Blood glucose concentration ([4]; 30 mg/kg of bw per os, 1.5h) | also measured |
| --- | --- | --- | --- | --- | --- | --- | --- | --- | --- | --- | --- | --- | --- | --- | --- | --- | --- | --- | --- | --- | --- |
| O=c1oc2ccc(O)cc2cc1-c1ccc(O)cc1 [Compound 17, 6-Hydroxy-3-(4-hydroxyphenyl)-coumarin] | 163 ± 7.13 µM | moderate to excellent inhibitory activity | 11.5 ± 1.3 µM | 24.68 ± 0.12 µM | > 50% | ~70.39% | 26.9 ± 3.8 mM | (−8.92) % | 24.5 ± 3.0 mM | (−15.24) % | 22.8 ± 2.3 mM | (−38.29) % | 16.6 ± 5.8 mM | (−44.98) % | 14.8 ± 8.0 mM | (−45.35) % | 14.7 ± 9.5 mM | 23.3 ± 3.2 mM | (−23.18) % | 17.9 ± 5.7 mM | highest anti-hyperglycemic effect ([4]; 100 mg/kg, at 7 h): ~70.51%; % Variation of glycemia ([4]; 30 mg/kg of bw per os, 3h): (−50.22) %; Blood glucose concentration ([4]; 30 mg/kg of bw per os, 3h): 11.6 ± 4.8 mM; % Variation of glycemia ([4]; 30 mg/kg of bw per os, 5h): (−64.38) %; Blood glucose concentration ([4]; 30 mg/kg of bw per os, 5h): 8.3 ± 3.8 mM; % Variation of glycemia ([4]; 30 mg/kg of bw per os, 7h): (−68.24) %; Blood glucose concentration ([4]; 30 mg/kg of bw per os, 7h): 7.4 ± 6.7 mM; % Variation of glycemia ([4]; 30 mg/kg of bw per os, 9h): (−70.39) %; Blood glucose concentration ([4]; 30 mg/kg of bw per os, 9h): 6.9 ± 7.9 mM; Blood glucose concentration ([4]; 100 mg/kg of bw per os, 0h): 23.4 ± 5.7 mM; % Variation of glycemia ([4]; 100 mg/kg of bw per os, 1.5h): (−19.66) %; Blood glucose concentration ([4]; 100 mg/kg of bw per os, 1.5h): 18.8 ± 6.0 mM; % Variation of glycemia ([4]; 100 mg/kg of bw per os, 3h): (−46.58) %; Blood glucose concentration ([4]; 100 mg/kg of bw per os, 3h): 12.5 ± 4.7 mM; % Variation of glycemia ([4]; 100 mg/kg of bw per os, 5h): (−67.52) %; Blood glucose concentration ([4]; 100 mg/kg of bw per os, 5h): 7.6 ± 3.8 mM; % Variation of glycemia ([4]; 100 mg/kg of bw per os, 7h): (−70.51) %; Blood glucose concentration ([4]; 100 mg/kg of bw per os, 7h): 6.9 ± 2.6 mM; % Variation of glycemia ([4]; 100 mg/kg of bw per os, 9h): (−65.81) %; Blood glucose concentration ([4]; 100 mg/kg of bw per os, 9h): 8.0 ± 2.3 mM |
| COc1ccc(-c2cc3c(O)cc(O)cc3oc2=O)cc1 [Compound 35, 5,7-Dihydroxy-3-(4-methoxyphenyl)-coumarin] | 155 ± 10.5 µM | moderate to excellent inhibitory activity | 10.8 ± 0.63 µM | 5.21 ± 0.07 µM | > 50% | ~74.54% | 20.5 ± 7.1 mM | (−36.10) % | 13.1 ± 6.4 mM | (−47.81) % | 10.7 ± 5.7 mM | (−72.68) % | 5.6 ± 3.1 mM | (−73.66) % | 5.4 ± 3.4 mM | (−72.20) % | 5.7 ± 3.1 mM | 21.6 ± 4.4 mM | (−44.44) % | 12.0 ± 3.7 mM | highest anti-hyperglycemic effect ([4]; 10 mg/kg, at 7 h): ~73.66%; % Variation of glycemia ([4]; 30 mg/kg of bw per os, 3h): (−51.39) %; Blood glucose concentration ([4]; 30 mg/kg of bw per os, 3h): 10.5 ± 5.1 mM; % Variation of glycemia ([4]; 30 mg/kg of bw per os, 5h): (−70.83) %; Blood glucose concentration ([4]; 30 mg/kg of bw per os, 5h): 6.3 ± 4.3 mM; % Variation of glycemia ([4]; 30 mg/kg of bw per os, 7h): (−73.61) %; Blood glucose concentration ([4]; 30 mg/kg of bw per os, 7h): 5.7 ± 6.7 mM; % Variation of glycemia ([4]; 30 mg/kg of bw per os, 9h): (−74.54) %; Blood glucose concentration ([4]; 30 mg/kg of bw per os, 9h): 5.5 ± 5.2 mM; Blood glucose concentration ([4]; 100 mg/kg of bw per os, 0h): 20.3 ± 4.4 mM; % Variation of glycemia ([4]; 100 mg/kg of bw per os, 1.5h): (−25.62) %; Blood glucose concentration ([4]; 100 mg/kg of bw per os, 1.5h): 15.1 ± 5.0 mM; % Variation of glycemia ([4]; 100 mg/kg of bw per os, 3h): (−48.28) %; Blood glucose concentration ([4]; 100 mg/kg of bw per os, 3h): 10.5 ± 4.9 mM; % Variation of glycemia ([4]; 100 mg/kg of bw per os, 5h): (−64.53) %; Blood glucose concentration ([4]; 100 mg/kg of bw per os, 5h): 7.2 ± 2.6 mM; % Variation of glycemia ([4]; 100 mg/kg of bw per os, 7h): (−64.53) %; Blood glucose concentration ([4]; 100 mg/kg of bw per os, 7h): 7.2 ± 3.9 mM; % Variation of glycemia ([4]; 100 mg/kg of bw per os, 9h): (−68.47) %; Blood glucose concentration ([4]; 100 mg/kg of bw per os, 9h): 6.4 ± 2.0 mM |
